According to patent US20250108213A1, “COMPOSITIONS AND METHODS FOR ENHANCING THE EFFECT OF PLATINUM-BASED SYSTEMIC THERAPY” (NOVOCURE GMBH, priority 2023, published 2025):
Entries after “also recorded” stand apart in the source; their conditions may differ.

How the values were obtained:
[1] = tested on: A2780cis cells; test: Cell count and overall effect (cell count x colony formation) after 72 h drug with or without TTFields; type: cell-based, human
Protocol: (§1) TTFields were applied to the cells for 72 h in the absence or presence of various concentrations of carboplatin. Synergy was defined when the observed value was lower than that predicted for an additive effect (presented by the red dotted line-calculated by multiplying the observed effects for TTFields alone with that for cisplatin alone).
The Cytotoxic effect was also determined. Treated cells were counted using a flow cytometer, and cytotoxic effect was calculated relative to control cells.
Treated cells were harvested, re-plated, and grown for an additional 7-14 days. Colonies were stained (0.5% crystal violet solution), counted, and clonogenic effect was calculated relative to control. The overall effect was calculated by multiplying the cytotoxic and clonogenic effects.
TTFields application was studied. Ovarian carcinoma cells A2780cis (cisplatin resistant cells) were treated for 72 h with TTFields at an intensity of 1 V/cm RMS and a frequency of 200 kHz using the inovitro system (See FIG. 11).
as §1, with “PARPi Olaparib and Niraparib.” for “carboplatin.”
The cytotoxic effect was studied. Treated cells were counted using a flow cytometer, and cytotoxic effect was calculated relative to control cells.
Treated cells were harvested, re-plated, and grown for an additional 7-14 days. Colonies were stained (0.5% crystal violet solution), counted, and clonogenic effect was calculated relative to control. Overall effect was calculated by multiplying the cytotoxic and clonogenic effects.
Cells were seeded on coverslip (22 mm diameter; 20×10^3 cells/coverslip for A2780 and A2780cis; 40×10^3 cells/coverslip for OVCAR-3). After overnight incubation, the coverslips were transferred into in vitro dishes containing 2 ml of media. TTFields at a frequency of 200 kHz (and intensity of 1 V/cm RMS) were applied to the cells for 72 hr using the INOVITRO system (Novocure, Haifa, Israel).
For efficacy outcomes (cell count, overall effect, and apoptosis), various concentrations of carboplatin (MCE MedChemExpress, HY-17393), olaparib (Cayman Chemical, 10621), or niraparib (Cayman Chemical, 20842) were applied, with or without TTFields.
Cell count was examined following treatment using Cytek Northern Lights flow cytometer (Cytek Biosciences, USA).
Treated cells were harvested, re-plated in 6-well plates (500 cells/well for A2780 and A2780cis; 1000 for cells/well OVCAR-3), and grown for 7 (A2780 and A2780cis) or 21 (OVCAR-3) days. Colonies were stained with 0.5% crystal violet, quantified with ImageJ, and expressed as percentages relative to control. Overall effect was calculated by multiplying colony formation with the corresponding cell count.
The surviving fraction predicted for an additive effect between TTFields and drug was calculated per the various drug concentrations by multiplying the actual measured surviving fractions for the individual treatments one by the other (SFcalculated additive=SFTTFields×SFdrug; SF are expressed as probability). Based on the calculated values, a trendline was determined. Additivity, synergy, or antagonism was defined when the calculated additive trendline overlapped, was above, or was below the actual measured line for TTFields+drug, respectively.
For quantifying the magnitude of TTFields-drug interaction, interaction index (Ii) values were calculated by the Bliss independence method using mortality values (Mx=1−SFx). Per the various drug concentrations, mortality predicted for an additive effect between TTFields and drug (Mcalculated additive=MTTFields+Mdrug−MTTFields×Mdrug) was divided by the actual measured mortality for TTFields+drug.

[2] = tested on: A2780 cells; test: Apoptosis, Annexin V/7-AAD staining, flow cytometer; type: cell-based, human; details: TTFields applied with drug
Protocol: Apoptosis: Treated cells were double-stained with FITC-conjugated annexin V (AnnV) and 7-aminoactinomycin D (7AAD), and data acquisition was performed with a flow cytometer.
Apoptosis was also examined. Treated cells were double-stained with FITC-conjugated annexin V (AnnV) and 7-aminoactinomycin D (7AAD), and data acquisition was performed with a flow cytometer.
Treated cells were stained with FITC-conjugated Annexin V (AnnV) and 7-Aminoactinomycin D (7-AAD) using a commercial kit (BioLegend, San Diego, CA, USA), according to the manufacturer's instruction. Data acquisition and analysis were done on the Cytek Northern Lights flow cytometer

[3] = tested on: G2/M cell cycle arrest; test: Cell cycle analysis (7-AAD, flow cytometer); type: cell-based, human
Protocol: For DNA damage and cell cycle examination, the following drug concentrations were selected: For A2780—6 μM carboplatin, 1 μM olaparib, and 0.5 μM niraparib; For OVCAR-3-16 μM carboplatin, 0.5 μM olaparib, and 0.8 μM niraparib; For A2780cis—36 μM carboplatin, 10 μM olaparib, and 1.5 μM niraparib. Treated cells were fixed with 70% ice-cold ethanol for 30 min, pelleted, washed, and stained for 30 min at 37° C. in phosphate buffered saline (PBS) containing 1% FBS 5 μg/ml 7-AAD (BioLegend), 200 μg/ml RNase, 1 mM EDTA and 0.1% Triton X-100. Data acquisition (at 665/30 nm) and analysis were done on the Cytek Northern Lights flow cytometer and the FlowJo 10.8.1 software (BD Biosciences), respectively.

[4] = tested on: orthotopic ID8-fLuc (HRP) ovarian cancer tumors; test: Tumor load by bioluminescent imaging in ovarian cancer bearing mice; type: in vivo
Protocol: Murine experiments were approved by the KU Leuven ethical committee (P082/2021). NIH guidelines for the Care and Use of Laboratory Animals were followed along with the 2010/62/EU directive and the ARRIVE (Animal Research: Reporting of In Vivo Research: Reporting of In Vivo Experiments) guidelines. Syngeneic ID8-fluc cells were harvested using 0.05% Trypsin-EDTA and inoculated (5×10^6 cells in 100 μL DPBS) intraperitoneally in female C57BL/6 mice (six- to eight-week-old, obtained from Envigo (Horst, The Netherlands)), leading to the development of a stage III-IV ovarian cancer model.
Seven days post inoculation, treatment was initiated. Mice were divided into four groups receiving either, sham-heat and vehicle (n=8), sham-heat and olaparib (n=8), TTFields and vehicle (n=7) or TTFields and olaparib (n=11). TTFields treatment (200 kHz) was administered continuously using the in vivo system (Novocure, Israel) by applying electrode arrays to the shaven abdomen of the mice as previously described. […]
Tumor load was observed through bioluminescent imaging analysis before (day 5) and after (day 35) treatment administration. […] Ten minutes post injection, photon flux was measured using the IVIS-spectrum preclinical In Vivo Imaging System (Perkin-Elmer, USA). Normalized photon flux was calculated by subtracting the photon flux before treatment from the paired photon flux after treatment per mouse.

O=C(c1cc(Cc2n[nH]c(=O)c3ccccc23)ccc1F)N1CCN(C(=O)C2CC2)CC1 [olaparib]
effect of TTFields on the drug-induced overall effect (cell count x colony formation) ([1]; TTFields plus drug vs drug alone): significantly augmented | effect of TTFields on the drug-induced effect, cell count ([1]; TTFields plus drug vs drug alone, p<0.0001): significantly augmented | sensitivity to drug (cell count dose response) ([1]; drug alone, 72 h, compared among A2780, OVCAR-3, A2780cis): highest resistance | type of TTFields-drug interaction (measured vs calculated additive curve) ([1]; platinum-resistant cells, TTFields 200 kHz, 1 V/cm RMS, 72 h): tendency to synergy | effect of TTFields on the apoptotic effect / apoptotic cell fraction [2]: enhanced; also recorded: elevation | cell cycle arrest, drug alone [3]: induced G2/M arrest | tumor volumes lower compared to controls and to olaparib only treated mice ([4]; TTFields (200 kHz) plus olaparib 50 mg/kg/day oral gavage, after 4 weeks, p=0.0183 vs controls, p=0.0066 vs olaparib only): about 80% | tumor growth relative to olaparib alone and to control, TTFields and olaparib together ([4]; TTFields plus olaparib 50 mg/kg/day): significant reduction
